How the values were obtained:
[1] = target: T1, Muscarinic acetylcholine receptor M2 (Homo sapiens, UniProt P08172)
T1 sequence (P08172 whole entry): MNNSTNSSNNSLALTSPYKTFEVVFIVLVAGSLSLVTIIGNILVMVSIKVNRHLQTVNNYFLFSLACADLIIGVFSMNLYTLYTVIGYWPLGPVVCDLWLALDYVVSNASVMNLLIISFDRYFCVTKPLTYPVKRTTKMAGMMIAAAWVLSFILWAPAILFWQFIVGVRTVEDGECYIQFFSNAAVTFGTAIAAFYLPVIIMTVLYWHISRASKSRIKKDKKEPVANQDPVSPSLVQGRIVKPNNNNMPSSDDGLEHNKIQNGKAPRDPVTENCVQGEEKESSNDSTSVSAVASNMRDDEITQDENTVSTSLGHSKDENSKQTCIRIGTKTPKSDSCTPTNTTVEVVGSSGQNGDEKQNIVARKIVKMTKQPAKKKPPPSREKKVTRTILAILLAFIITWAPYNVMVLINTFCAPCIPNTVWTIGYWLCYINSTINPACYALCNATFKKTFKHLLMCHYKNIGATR

[2] = target: Histamine H3 receptor (Homo sapiens, UniProt Q9Y5N1)
Histamine H3 receptor, sequence (Q9Y5N1 whole entry): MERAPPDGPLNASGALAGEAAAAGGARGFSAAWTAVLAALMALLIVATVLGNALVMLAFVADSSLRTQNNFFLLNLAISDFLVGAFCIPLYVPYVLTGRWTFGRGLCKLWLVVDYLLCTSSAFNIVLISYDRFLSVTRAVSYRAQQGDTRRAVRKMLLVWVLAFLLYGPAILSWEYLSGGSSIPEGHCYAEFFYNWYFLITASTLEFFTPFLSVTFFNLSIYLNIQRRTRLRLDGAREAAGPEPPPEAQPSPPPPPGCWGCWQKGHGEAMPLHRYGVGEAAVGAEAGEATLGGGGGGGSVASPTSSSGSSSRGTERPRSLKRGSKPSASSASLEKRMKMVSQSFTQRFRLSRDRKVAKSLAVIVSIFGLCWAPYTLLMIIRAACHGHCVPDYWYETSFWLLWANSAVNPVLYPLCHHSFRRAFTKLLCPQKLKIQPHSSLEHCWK

[3] = target: T2, 5-hydroxytryptamine receptor 1A (Homo sapiens, UniProt P08908)
T2 sequence (P08908 whole entry): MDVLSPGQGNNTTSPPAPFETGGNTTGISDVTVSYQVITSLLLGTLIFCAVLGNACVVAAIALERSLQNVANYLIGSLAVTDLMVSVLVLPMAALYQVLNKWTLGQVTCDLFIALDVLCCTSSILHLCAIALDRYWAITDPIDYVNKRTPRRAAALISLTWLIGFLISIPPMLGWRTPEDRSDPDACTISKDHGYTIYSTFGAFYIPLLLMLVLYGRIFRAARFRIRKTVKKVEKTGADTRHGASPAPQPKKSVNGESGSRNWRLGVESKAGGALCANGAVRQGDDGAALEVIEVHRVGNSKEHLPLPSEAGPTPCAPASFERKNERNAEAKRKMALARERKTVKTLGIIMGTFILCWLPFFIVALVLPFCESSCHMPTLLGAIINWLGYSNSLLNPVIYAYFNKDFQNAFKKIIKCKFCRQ

[4] = target: 5-hydroxytryptamine receptor 2B (Homo sapiens, UniProt P41595); assay type: functional, cell-based
5-hydroxytryptamine receptor 2B, sequence (P41595 whole entry): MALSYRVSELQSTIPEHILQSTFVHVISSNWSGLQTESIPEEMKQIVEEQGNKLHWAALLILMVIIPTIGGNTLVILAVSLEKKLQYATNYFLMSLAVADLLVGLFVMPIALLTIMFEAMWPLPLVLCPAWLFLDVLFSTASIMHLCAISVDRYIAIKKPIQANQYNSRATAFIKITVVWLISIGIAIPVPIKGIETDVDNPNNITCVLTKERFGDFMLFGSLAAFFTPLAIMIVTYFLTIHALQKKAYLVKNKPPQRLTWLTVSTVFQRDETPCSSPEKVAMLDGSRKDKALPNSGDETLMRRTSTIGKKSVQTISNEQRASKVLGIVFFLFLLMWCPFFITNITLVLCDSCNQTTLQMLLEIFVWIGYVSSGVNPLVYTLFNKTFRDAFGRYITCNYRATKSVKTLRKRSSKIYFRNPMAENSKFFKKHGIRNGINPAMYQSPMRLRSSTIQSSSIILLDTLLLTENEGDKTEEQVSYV

[5] = target: Voltage-gated inwardly rectifying potassium channel KCNH2 (Homo sapiens, UniProt Q12809); assay type: functional
Voltage-gated inwardly rectifying potassium channel KCNH2, sequence (Q12809 whole entry): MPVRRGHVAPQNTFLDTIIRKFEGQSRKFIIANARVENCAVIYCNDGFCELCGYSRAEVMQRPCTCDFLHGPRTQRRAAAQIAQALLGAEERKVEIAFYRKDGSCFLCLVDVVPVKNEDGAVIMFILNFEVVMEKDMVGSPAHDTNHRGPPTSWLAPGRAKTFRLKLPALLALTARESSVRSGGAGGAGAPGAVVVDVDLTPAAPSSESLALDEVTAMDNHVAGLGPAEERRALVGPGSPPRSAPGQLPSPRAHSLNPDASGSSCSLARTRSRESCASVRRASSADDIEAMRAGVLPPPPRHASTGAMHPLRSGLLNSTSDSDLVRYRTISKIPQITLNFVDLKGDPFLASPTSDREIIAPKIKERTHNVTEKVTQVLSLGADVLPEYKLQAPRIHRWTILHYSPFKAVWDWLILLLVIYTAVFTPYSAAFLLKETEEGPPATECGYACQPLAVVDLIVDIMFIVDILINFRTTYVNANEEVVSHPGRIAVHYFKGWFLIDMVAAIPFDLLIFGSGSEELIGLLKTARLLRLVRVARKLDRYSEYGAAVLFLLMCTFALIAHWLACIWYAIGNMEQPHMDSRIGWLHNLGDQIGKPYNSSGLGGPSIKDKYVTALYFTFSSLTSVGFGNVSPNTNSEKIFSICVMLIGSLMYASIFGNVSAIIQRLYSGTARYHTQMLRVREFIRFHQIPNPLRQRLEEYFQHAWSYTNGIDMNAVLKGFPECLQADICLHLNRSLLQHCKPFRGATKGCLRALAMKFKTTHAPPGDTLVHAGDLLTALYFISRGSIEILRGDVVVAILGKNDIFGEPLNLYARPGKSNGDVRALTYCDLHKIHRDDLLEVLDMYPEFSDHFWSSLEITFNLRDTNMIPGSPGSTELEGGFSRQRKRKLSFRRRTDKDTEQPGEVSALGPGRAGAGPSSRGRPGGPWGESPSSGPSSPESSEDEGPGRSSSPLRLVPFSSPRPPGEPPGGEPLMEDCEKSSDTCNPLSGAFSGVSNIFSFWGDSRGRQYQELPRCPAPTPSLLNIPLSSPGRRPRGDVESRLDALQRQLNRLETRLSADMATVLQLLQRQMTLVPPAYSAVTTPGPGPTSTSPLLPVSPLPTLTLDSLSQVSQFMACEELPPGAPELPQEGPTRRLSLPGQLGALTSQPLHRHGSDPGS

[6] = target: Mu-type opioid receptor (Homo sapiens, UniProt P35372)
Mu-type opioid receptor, sequence (P35372 whole entry): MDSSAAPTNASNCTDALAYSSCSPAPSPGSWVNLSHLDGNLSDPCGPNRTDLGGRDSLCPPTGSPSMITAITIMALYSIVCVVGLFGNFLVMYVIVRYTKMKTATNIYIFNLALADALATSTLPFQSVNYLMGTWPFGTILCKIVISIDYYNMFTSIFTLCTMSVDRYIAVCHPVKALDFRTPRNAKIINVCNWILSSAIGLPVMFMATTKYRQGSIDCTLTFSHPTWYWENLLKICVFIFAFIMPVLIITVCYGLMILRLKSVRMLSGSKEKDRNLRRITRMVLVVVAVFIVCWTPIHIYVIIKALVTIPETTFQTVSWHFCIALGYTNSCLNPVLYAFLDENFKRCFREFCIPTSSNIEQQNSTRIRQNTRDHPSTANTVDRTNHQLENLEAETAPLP

[7] = target: cGMP-inhibited 3',5'-cyclic phosphodiesterase 3A (Homo sapiens, UniProt Q14432); assay type: functional
cGMP-inhibited 3',5'-cyclic phosphodiesterase 3A, sequence (Q14432 whole entry): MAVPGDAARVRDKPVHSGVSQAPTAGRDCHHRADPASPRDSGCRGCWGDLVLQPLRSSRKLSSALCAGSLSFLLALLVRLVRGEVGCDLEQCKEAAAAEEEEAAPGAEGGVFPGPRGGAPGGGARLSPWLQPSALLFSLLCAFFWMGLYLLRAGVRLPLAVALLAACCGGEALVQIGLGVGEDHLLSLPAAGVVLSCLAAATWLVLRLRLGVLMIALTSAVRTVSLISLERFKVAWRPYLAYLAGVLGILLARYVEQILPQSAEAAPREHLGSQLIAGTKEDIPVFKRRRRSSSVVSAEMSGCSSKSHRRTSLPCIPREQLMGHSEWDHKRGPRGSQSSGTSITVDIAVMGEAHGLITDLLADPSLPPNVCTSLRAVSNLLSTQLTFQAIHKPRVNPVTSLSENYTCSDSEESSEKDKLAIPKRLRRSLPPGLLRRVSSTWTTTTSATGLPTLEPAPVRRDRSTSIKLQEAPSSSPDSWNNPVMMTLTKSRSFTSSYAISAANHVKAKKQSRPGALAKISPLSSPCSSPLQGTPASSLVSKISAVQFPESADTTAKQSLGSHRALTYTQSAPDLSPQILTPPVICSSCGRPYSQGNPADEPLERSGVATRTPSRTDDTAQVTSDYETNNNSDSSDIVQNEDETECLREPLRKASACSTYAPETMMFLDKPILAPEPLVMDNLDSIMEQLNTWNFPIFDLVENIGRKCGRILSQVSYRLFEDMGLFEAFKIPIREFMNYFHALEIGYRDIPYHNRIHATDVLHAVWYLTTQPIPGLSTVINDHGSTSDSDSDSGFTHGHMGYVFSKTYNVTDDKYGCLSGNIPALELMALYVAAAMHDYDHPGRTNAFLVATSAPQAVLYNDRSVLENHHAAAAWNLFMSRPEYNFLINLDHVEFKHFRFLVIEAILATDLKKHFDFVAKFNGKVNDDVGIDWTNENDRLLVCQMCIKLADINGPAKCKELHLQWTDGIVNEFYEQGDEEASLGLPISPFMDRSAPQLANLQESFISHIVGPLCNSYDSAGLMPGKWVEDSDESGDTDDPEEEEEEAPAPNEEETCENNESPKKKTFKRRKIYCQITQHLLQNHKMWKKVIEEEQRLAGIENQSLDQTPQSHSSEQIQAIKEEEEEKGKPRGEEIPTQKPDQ

[8] = target: T3, Progesterone receptor (Homo sapiens, UniProt P06401)
T3 sequence (P06401 whole entry): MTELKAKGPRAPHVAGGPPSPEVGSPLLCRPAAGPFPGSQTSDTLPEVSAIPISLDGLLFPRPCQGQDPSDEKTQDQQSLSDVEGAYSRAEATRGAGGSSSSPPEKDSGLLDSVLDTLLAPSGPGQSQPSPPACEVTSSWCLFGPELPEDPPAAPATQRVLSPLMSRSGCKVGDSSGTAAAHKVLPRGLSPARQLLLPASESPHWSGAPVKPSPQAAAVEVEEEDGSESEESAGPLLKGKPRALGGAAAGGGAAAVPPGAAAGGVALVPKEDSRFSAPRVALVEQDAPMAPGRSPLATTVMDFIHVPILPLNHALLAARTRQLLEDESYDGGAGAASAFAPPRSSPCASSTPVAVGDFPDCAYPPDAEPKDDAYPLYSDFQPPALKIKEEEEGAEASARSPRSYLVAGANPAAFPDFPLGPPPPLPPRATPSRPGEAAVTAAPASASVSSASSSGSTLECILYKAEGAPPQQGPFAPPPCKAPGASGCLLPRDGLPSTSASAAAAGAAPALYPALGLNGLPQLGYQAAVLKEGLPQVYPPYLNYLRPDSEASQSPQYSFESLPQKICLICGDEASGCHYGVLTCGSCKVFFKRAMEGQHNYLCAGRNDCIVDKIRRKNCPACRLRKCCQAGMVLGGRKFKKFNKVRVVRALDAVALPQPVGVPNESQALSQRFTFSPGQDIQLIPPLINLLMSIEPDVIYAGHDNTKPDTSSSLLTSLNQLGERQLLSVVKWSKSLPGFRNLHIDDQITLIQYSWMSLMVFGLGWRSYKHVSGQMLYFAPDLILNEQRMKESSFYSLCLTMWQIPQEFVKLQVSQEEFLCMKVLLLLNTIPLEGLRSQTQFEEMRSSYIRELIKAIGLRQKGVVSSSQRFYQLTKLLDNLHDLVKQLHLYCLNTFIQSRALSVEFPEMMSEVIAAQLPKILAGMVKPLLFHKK

[9] = target: Prostaglandin G/H synthase 1 (Homo sapiens, UniProt P23219); assay type: functional
Prostaglandin G/H synthase 1, sequence (P23219 whole entry): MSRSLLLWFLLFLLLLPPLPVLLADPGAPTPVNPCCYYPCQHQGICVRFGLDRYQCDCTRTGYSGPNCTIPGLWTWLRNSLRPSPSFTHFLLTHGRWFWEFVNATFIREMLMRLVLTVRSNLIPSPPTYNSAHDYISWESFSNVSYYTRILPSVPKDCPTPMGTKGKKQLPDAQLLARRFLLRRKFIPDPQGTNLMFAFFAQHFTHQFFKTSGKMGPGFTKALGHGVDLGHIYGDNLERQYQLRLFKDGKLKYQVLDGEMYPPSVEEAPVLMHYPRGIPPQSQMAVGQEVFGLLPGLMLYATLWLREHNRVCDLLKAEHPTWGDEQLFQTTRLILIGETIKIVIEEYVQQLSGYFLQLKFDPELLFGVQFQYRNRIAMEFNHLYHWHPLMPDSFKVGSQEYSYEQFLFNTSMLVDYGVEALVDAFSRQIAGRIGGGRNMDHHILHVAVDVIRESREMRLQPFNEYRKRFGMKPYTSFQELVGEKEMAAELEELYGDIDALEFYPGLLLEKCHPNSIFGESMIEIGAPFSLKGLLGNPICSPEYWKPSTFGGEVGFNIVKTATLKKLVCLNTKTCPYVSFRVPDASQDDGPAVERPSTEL

[10] = target: T4, Thromboxane A2 receptor (Homo sapiens, UniProt P21731); assay type: functional, cell-based
T4 sequence (P21731 whole entry): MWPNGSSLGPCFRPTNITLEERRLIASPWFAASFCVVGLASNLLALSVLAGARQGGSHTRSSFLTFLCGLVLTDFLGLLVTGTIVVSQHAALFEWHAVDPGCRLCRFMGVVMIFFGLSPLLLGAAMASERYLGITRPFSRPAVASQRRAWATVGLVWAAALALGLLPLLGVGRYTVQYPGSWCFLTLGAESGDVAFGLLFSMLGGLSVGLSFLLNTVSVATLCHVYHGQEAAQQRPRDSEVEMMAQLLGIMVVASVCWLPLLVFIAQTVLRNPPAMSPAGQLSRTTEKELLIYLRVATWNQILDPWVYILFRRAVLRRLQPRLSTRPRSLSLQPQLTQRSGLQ

[11] = target: T4, Thromboxane A2 receptor; assay type: functional, cell-based; remark: listed apart in the source
Further: assay procedure not described here.

Structure (SMILES) | AC50 [1] [µM] | AC50 [2] [µM] | AC50 [3] [µM] | AC50 [4] [µM] | AC50 [5] [µM] | AC50 [6] [µM] | AC50 [7] [µM] | AC50 [8] [µM] | AC50 [9] [µM] | AC50 [10] [µM] | AC50 [11] [µM]
CN(CC1(C)CCCO1)S(=O)(=O)c1ccc(Cl)c(S(N)(=O)=O)c1 (stereo not given) [MEFRUSIDE] | > 30 | > 30 | > 30 | > 30 | > 30 | > 30 | > 30 | > 30 | > 30 | > 30 | > 30
CC[C@H](C)C[C@H](C)CCCCCCCCC(=O)N[C@H]1C[C@@H](O)[C@@H](NCCN)NC(=O)[C@@H]2[C@@H](O)CCN2C(=O)[C@H]([C@H](O)CCN)NC(=O)[C@H]([C@H](O)[C@@H](O)c2ccc(O)cc2)NC(=O)[C@@H]2C[C@@H](O)CN2C(=O)[C@H]([C@@H](C)O)NC1=O [CASPOFUNGIN] | 10.8 | > 30 | > 30 | > 30 |  | 5.12 | > 30 | 5.7 |  | > 30 | > 30
CC(=O)O[C@]1(C(C)=O)CC[C@H]2[C@@H]3C=C(C)C4=CC(=O)CC[C@@H]4[C@H]3CC[C@@]21C [NOMEGESTROL ACETATE] | > 30 | > 30 | > 30 | > 30 | > 30 | > 30 | > 30 | 0.003 | > 30 | > 30 | > 10
CN1CCC(=C2c3ccccc3Sc3ccccc32)CC1 [PIMETHIXENE] | 0.0071 | > 30 | 0.0145 | > 30 | 3.9 | 8.56 | > 30 | > 30 | > 30 | > 30 | 14
C/C=C/C/C=C/CCC(=O)[C@H]1O[C@H]1C(N)=O [CERULENIN] | > 30 | > 30 | > 30 | > 30 | > 30 | > 30 | > 30 | > 30 | > 30 | > 30 | > 30
O=C(O)CO [GLYCOLIC ACID] | > 30 | > 30 | > 30 | > 30 |  | > 30 | > 30 | > 30 | > 30 | > 30 | > 30
CC[C@H](c1ccc(O)cc1)[C@@H](CC)c1ccc(O)cc1 [HEXESTROL] | 18.7 | > 30 | > 30 | > 30 | > 30 | 15 | > 30 | 1.85 | > 30 | 21 | > 3
O=C1/C(=C2\Nc3ccc(S(=O)(=O)O)cc3C2=O)Nc2ccc(S(=O)(=O)O)cc21 [INDIGOTINDISULFONATE] | > 30 | > 30 | > 30 | > 30 | > 30 | > 30 | > 30 | > 30 | 21.5 | > 30 | > 30
FC(F)(F)c1ccc(CNc2ccc(Cc3c[nH]c4ncc(Cl)cc34)cn2)cn1 [PEXIDARTINIB] | 0.496 | > 30 | 0.627 | > 30 | 8.6 | 13.4 | > 30 | 9.95 | > 30 | > 30 | 8.61
CCc1nc(C(N)=O)c(Nc2ccc(N3CCC(N4CCN(C)CC4)CC3)c(OC)c2)nc1NC1CCOCC1 [GILTERITINIB] | 16.4 | 13.7 | > 30 | > 30 |  | > 30 | > 30 | > 30 | > 30 | > 30 | > 0.3
N[C@@H](CS)C(=O)O [CYSTEINE] | > 30 | > 30 | > 30 | > 30 |  | > 30 | > 30 | > 30 | 4.66 | > 30 | > 30
CCOC(=O)c1c(C)cc2c(CO)n[nH]c(=O)c2c1C [OXAGRELATE] | > 30 | > 30 | > 30 | > 30 |  | > 30 | 6.48 | > 30 | > 30 | > 30 | > 30
CN1CCCCC1CCN1c2ccccc2Sc2ccc([S+](C)[O-])cc21 (stereo not given) [MESORIDAZINE] | 0.153 | 21.9 | 0.214 | > 30 |  | 2.99 | > 30 | > 30 | > 30 | > 30 | > 30
OC[C@H]1O[C@@H](c2ccc(F)c(Cc3cc4ccccc4s3)c2)[C@H](O)[C@@H](O)[C@@H]1O [IPRAGLIFLOZIN] | > 30 | > 30 | > 30 | > 30 |  | > 30 | > 30 | > 30 | > 30 | > 30 | > 30
CC[C@@]1(O)C(=O)OCc2c1cc1n(c2=O)Cc2cc3c([N+](=O)[O-])cccc3nc2-1 [RUBITECAN] | > 30 | > 30 | > 30 | > 30 |  | > 30 | > 30 | > 30 | 26.8 | > 30 | > 10
CC(=O)Oc1cc(C(F)(F)F)ccc1C(=O)O [TRIFLUSAL] | > 30 | > 30 | > 30 | > 30 |  | > 30 | > 30 | > 30 | > 30 | > 30 | > 30
CC1=C(/C=C/C(C)=C/C=C/C(C)=C/C(=O)O)C(C)(C)CCC1 [TRETINOIN] | > 30 | > 30 | > 30 | > 30 |  | > 30 | > 30 | 4.24 |  | > 30 | 14.3

Reference: ChEMBL document CHEMBL5291721, “A preclinical secondary pharmacology resource illuminates target-adverse drug reaction associations of marketed drugs” (Nat Commun, 2023)
